Patent US20120255051A1, “HERBICIDE TOLERANT PLANTS” (priority 2009, published 2012)
Where “and” joins values, the source holds several entries; their conditions need not be identical. Equal entries are not always repeated.

Tested on: Brassica plants comprising mutant AHAS alleles
Assay: Field trial, pre-planting treatment (0, 10, 20, 30 g a.i./ha), two locations in Canada: ERG, EST1, EST2, PPTOX, VIG1, VIG2, VIG3 scores
Assay type: in vivo, Brassica napus
Text: Tests were set up and conducted to asses the growth and performance of plants comprising AHAS full knock-out alleles, and to further analyze the correlation between the presence of full knockout and missense AHAS genes in Brassica plants and plant growth and herbicide tolerance of the Brassica plants in the field. To this end, the Brassica plants identified in Example 1 and 2 were backcrossed two times with an elite parent line, and subsequently selfed twice to obtain homozygous plants (BC2S2). Plants were grown as row plots in a split plot design with three replicates (main plots=herbicide treatments, subplots=genotypes) at two locations in Canada. Treatment pre-planting was carried out on the soil about two days before sowing with a dose of 0 (treatment A), 10 (treatment B), 20 (treatment C) or 30 (treatment D) g a.i./ha of thiencarbazone methyl. Herbicide tolerance was measured by scoring for different parameters. The parameter emergence (ERG) was scored at the cotyledon stage on a scale 1-9, where 1 means late emergence and 9 means early emergence. Establishment was scored 14 days after sowing (EST1) and 21 days after sowing (EST2). Scores were from 1 to 9, where 1 is the worst establishment (least plants that emerged), and 9 is the best establishment (most plants emerged). Phytotoxicity (PPTOX) was determined after establishment. Plants were evaluated on a scale of 1 to 9, where 1=completely yellowing, 5=50% of plant is yellow and 9=no yellowing. The vigor scores (see above) were determined at 1-2 leaf stage (VIG1), 7 days after VIG1 (VIG2) and 14 days after VIG1 (VIG3). The average values (Av) and standard deviations (SD) of the scores for the different parameters are represented in Table 7a-g.
Further, the contribution of the knock-out allele to herbicide tolerance conferred by the missense allele was calculated. First, the scores were corrected for a possible effect of the growth per se, independent of herbicide treatment. To this end, the scores for treatments B, C and D were divided by the scores for treatment A for the same genotype and for the same parameter (corrected herbicide tolerance scores). Next, the effect of the knock-out allele to these corrected herbicide tolerance scores obtained by the missense allele was calculated. Therefore, the corrected herbicide tolerance scores for the missense—knock-out allele combination was divided by the corrected herbicide tolerance scores for the missense allele—wild-type combination. In case the knock-out allele has no effect on herbicide tolerance conferred by the missense allele, this ratio should be 1. In case the knock-out allele positively contributes to the herbicide tolerance conferred by the missense allele, this ratio should be higher than 1. The results for the contribution of the knock-out allele to herbicide tolerance conferred by the missense allele as calculated above are shown in table 8.

[1] = AHAS1 WT/AHAS3 HETO104, 10 g a.i./ha pre-planting (B), Location A
[2] = AHAS1 WT/AHAS3 HETO104, 10 g a.i./ha pre-planting (B), Location B
[3] = AHAS1 WT/AHAS3 HETO104, 20 g a.i./ha pre-planting (C), Location A
[4] = AHAS1 WT/AHAS3 HETO104, 20 g a.i./ha pre-planting (C), Location B
[5] = AHAS1 WT/AHAS3 HETO104, 30 g a.i./ha pre-planting (D), Location A
[6] = AHAS1 WT/AHAS3 HETO104, 30 g a.i./ha pre-planting (D), Location B
[7] = AHAS1 WT/AHAS3 HETO111, 10 g a.i./ha pre-planting (B), Location A
[8] = AHAS1 WT/AHAS3 HETO111, 10 g a.i./ha pre-planting (B), Location B
[9] = AHAS1 WT/AHAS3 HETO111, 20 g a.i./ha pre-planting (C), Location A
[10] = AHAS1 WT/AHAS3 HETO111, 20 g a.i./ha pre-planting (C), Location B
[11] = AHAS1 WT/AHAS3 HETO111, 30 g a.i./ha pre-planting (D), Location A
[12] = AHAS1 WT/AHAS3 HETO111, 30 g a.i./ha pre-planting (D), Location B
[13] = AHAS1 WT/AHAS3 WT, 10 g a.i./ha pre-planting (B), Location A
[14] = AHAS1 WT/AHAS3 WT, 10 g a.i./ha pre-planting (B), Location B
[15] = AHAS1 WT/AHAS3 WT, 20 g a.i./ha pre-planting (C), Location A
[16] = AHAS1 WT/AHAS3 WT, 20 g a.i./ha pre-planting (C), Location B
[17] = AHAS1 WT/AHAS3 WT, 30 g a.i./ha pre-planting (D), Location A

`COC(=O)c1csc(C)c1S(=O)(=O)NC(=O)n1nc(OC)n(C)c1=O` [thiencarbazone-methyl, methyl 4-[(4,5-dihydro-3-methoxy-4-methyl-5-oxo-1H-1,2,4-triazol-1-yl)carbonylsulfamoyl]-5-methylthiophene-3-carboxylate] was tested, and the “phytotoxicity (PPTOX) score, Av” value [1] was 1.33, the “vigor1 (VIG1) score, Av” value [1] was 1.33 and the “vigor2 (VIG2) score, Av” value [1] was 1.00. The “establishment (EST2) score, Av” value [2] was 3.33, the “phytotoxicity (PPTOX) score, Av” value [2] was 1.33 and the “vigor2 (VIG2) score, Av” value [2] was 1.33. For the same compound, the “establishment (EST2) score, Av” value [3] was 1.00, the “phytotoxicity (PPTOX) score, Av” value [3] was 1.00 and the “vigor1 (VIG1) score, Av” value [3] was 1.00. For the same compound, the “vigor2 (VIG2) score, Av” value [3] was 1.00, the “establishment (EST2) score, Av” value [4] was 2.33 and the “phytotoxicity (PPTOX) score, Av” value [4] was 1.00. The “vigor1 (VIG1) score, Av” value [4] was 1.33, the “vigor2 (VIG2) score, Av” value [4] was 1.00 and the “establishment (EST2) score, Av” value [5] was 1.00. The “phytotoxicity (PPTOX) score, Av” value [5] was 1.00, the “vigor1 (VIG1) score, Av” value [5] was 1.00 and the “vigor2 (VIG2) score, Av” value [5] was 1.00. The “establishment (EST2) score, Av” value [6] was 1.00, the “phytotoxicity (PPTOX) score, Av” value [6] was 1.00 and the “vigor1 (VIG1) score, Av” value [6] was 1.00. For the same compound, the “vigor2 (VIG2) score, Av” value [6] was 1.00, the “establishment (EST2) score, Av” value [7] was 5.33 and 5.67 and the “vigor1 (VIG1) score, Av” value [7] was 6.00. The “vigor2 (VIG2) score, Av” value [7] was 7.00, the “phytotoxicity (PPTOX) score, Av” value [8] was 6.00 and 6.33 and the “vigor1 (VIG1) score, Av” value [8] was 6.33 and 6.00. For the same compound, the “vigor2 (VIG2) score, Av” value [8] was 7.00, the “establishment (EST2) score, Av” value [9] was 4.67 and the “phytotoxicity (PPTOX) score, Av” value [9] was 5.00. The “vigor1 (VIG1) score, Av” value [9] was 5.00, the “vigor2 (VIG2) score, Av” value [9] was 6.33 and the “establishment (EST2) score, Av” value [10] was 4.67. The “vigor1 (VIG1) score, Av” value [10] was 5.00, the “vigor2 (VIG2) score, Av” value [10] was 6.00 and 5.67 and the “establishment (EST2) score, Av” value [11] was 5.00. The “phytotoxicity (PPTOX) score, Av” value [11] was 5.00, the “vigor1 (VIG1) score, Av” value [11] was 5.00 and the “vigor2 (VIG2) score, Av” value [11] was 5.67 and 5.33. The “phytotoxicity (PPTOX) score, Av” value [12] was 4.00, the “vigor1 (VIG1) score, Av” value [12] was 3.67 and the “vigor2 (VIG2) score, Av” value [12] was 4.33 and 5.00. The “establishment (EST2) score, Av” value [13] was 1.00 and 2.00, the “phytotoxicity (PPTOX) score, Av” value [13] was 1.00 and the “vigor1 (VIG1) score, Av” value [13] was 1.00 and 1.33. For the same compound, the “vigor2 (VIG2) score, Av” value [13] was 1.00, the “establishment (EST2) score, Av” value [14] was 4.33 and 5.00 and the “phytotoxicity (PPTOX) score, Av” value [14] was 1.33 and 1.67 and 2.33. The “vigor1 (VIG1) score, Av” value [14] was 3.00, the “vigor2 (VIG2) score, Av” value [14] was 1.67 and 2.00 and the “establishment (EST2) score, Av” value [15] was 1.00. For the same compound, the “phytotoxicity (PPTOX) score, Av” value [15] was 1.00, the “vigor1 (VIG1) score, Av” value [15] was 1.00 and the “vigor2 (VIG2) score, Av” value [15] was 1.00. The “establishment (EST2) score, Av” value [16] was 3.67 and 4.00 and 3.00, the “phytotoxicity (PPTOX) score, Av” value [16] was 1.00 and 1.33 and the “vigor1 (VIG1) score, Av” value [16] was 1.33. For the same compound, the “vigor2 (VIG2) score, Av” value [16] was 1.33 and 1.67, the “establishment (EST2) score, Av” value [17] was 1.00 and the “phytotoxicity (PPTOX) score, Av” value [17] was 1.00.
